Measured values taken from patent US20060062823A1, “Microtubule stabilisers for treating stenosis in stents” (priority 2002, published 2006).

Columns and labels:
[1] = test system: rat carotid artery balloon injury model; assay: Inhibition of late neointimal lesion formation in the 28 day rat carotid artery balloon injury model; format: in vivo
rabbit iliac stent model = assay: Inhibition of restenosis at 28 days in the rabbit iliac stent model; format: in vivo, New Zealand White rabbit; conditions: 28 days after stenting, vs placebo
Description: A.2 Inhibition of Restenosis at 28 Days in the Rabbit Iliac Stent Model
A combined angioplasty and stenting procedure is performed in New Zealand White rabbit iliac arteries. Iliac artery balloon injury is performed by inflating a 3.0×9.0 mm angioplasty balloon in the mid-portion of the artery followed by “pull-back” of the catheter for 1 balloon length. Balloon injury is repeated 2 times, and a 3.0×12 mm stent is deployed at 6 atm for 30 seconds in the iliac artery. Balloon injury and stent placement is then performed on the contralateral iliac artery in the same manner. A post-stent deployment angiogram is performed. All animals receive oral aspirin 40 mg/day daily as anti-platelet therapy and are fed standard low-cholesterol rabbit chow. Twenty-eight days after stenting, animals are anesthetized and euthanized and the arterial tree is perfused at 100 mmHg with lactated Ringer's for several minutes, then perfused with 10% formalin at 100 mmHg for 15 minutes. The vascular section between the distal aorta and the proximal femoral arteries is excised and cleaned of periadventitial tissue. The stented section of artery is embedded in plastic and sections are taken from the proximal, middle, and distal portions of each stent. All sections are stained with hematoxylin-eosin and Movat pentachrome stains. Computerized planimetry is performed to determine the area of the internal elastic lamina (IEL), external elastic lamina (EEL) and lumen. The neointima and neointimal thickness is measured both at and between the stent struts. The vessel area is measured as the area within the EEL. Data are expressed as mean±SEM. Statistical analysis of the histologic data is accomplished using analysis of variance (ANOVA) due to the fact that two stented arteries are measured per animal with a mean generated per animal. A P<0.05 is considered statistically significant.
An MIA, e.g. a compound of formula 1, e.g. epothilone B is administered orally by gavage at an initial dose one day prior to stenting, then dosed at 50% of the initial dose from the day of stenting until day 27 post-stenting.

[2] = (+)-Discodermolide release from polymer coatings in aqueous solution; format: physicochemical; conditions: polylactide glycolide coated stent pieces in PBS pH 7.4 or PEG 400/water 40/60 v/v, 37° C., solutions changed daily; stable = less than 10% of variation of the release rate
Description: (§1) A stent (e.g. a Multi-Link Vision stent, Guidant Corp.; or a DRIVER stent, Medtronic Corp.) is weighed and then mounted on a rotating or other support for coating with a polymer or other synthetic or biologic carrier used as a drug reservoir. In an example of an application of one such carrier, while the stent is rotating, a 100 μl aliquot of a solution of polylactide glycolide, 0.75 mg/ml of (+)-discodermolide and 0.0015 mg/ml 2,6-di-tert-butyl-4-methylphenol dissolved in a 50:50 mixture of methanol and tetrahydrofuran, is coated onto it. The coated stent is removed from the support and allowed to air-dry. After a final weighing the amount of coating on the stent is determined.
A.4 (+)-Discodermolide Release from Polymer Coatings in Aqueous Solution
Four 2 cm pieces of coated stents as described above are placed into 100 mL of phosphate buffer solution (PBS) having a pH of 7.4. Another 4 pieces from each series are placed into 100 mL of polyethylene glycol (PEG)/water solution (40/60 v/v, MW of PEG=400). The stent pieces are incubated at 37° C. in a shaker. The buffer and PEG solutions are changed daily and different assays are performed on the solution to determine the released (+)-discodermolide concentrations.

[3] = (+)-Discodermolide release from polymer coatings in plasma; format: physicochemical; conditions: coated stent pieces in citrated human plasma, 37° C., plasma changed daily
Description: as §1
A.5 (+)-Discodermolide Release from Polymer Coatings in Plasma
Release of (+)-discodermolide in plasma can also be studied. 1 cm pieces of a coated stent are put into 1 mL of citrated human plasma (from Helena Labs.) in lyophilized form and reconstituted by adding 1 mL of sterile deionized water. Three sets of stent plasma solutions are incubated at 37° C. and the plasma is changed daily. Different assays are performed on the solution to determine the released (+)-discodermolide concentrations.

[4] = administered locally to the adventitia via catheter/Alzet minipump

Compound	infiltration of CD45+ leukocytes ([1]; administered locally to the adventitia adjacent to the ballooned carotid via catheter/Alzet minipump, day 1)	constrictive remodeling [1, 4]	early (9 days post-ballooning) and late (21-31 days post-ballooning) neointimal lesions [1, 4]	CD45-positive leukocyte infiltration into the vessel wall and adventitia ([1]; rats dosed orally, daily, 1 day after balloon injury)	neointimal lesion formation following balloon injury ([1]; rats dosed orally, daily, at 9 and 12 days)	extent of restenotic lesion formation (rabbit iliac stent model; oral gavage from one day prior to stenting until day 27)	lesion formation in the portions of artery immediately proximal and immediately distal to the stent (rabbit iliac stent model; oral gavage)	number of inflammatory cells, especially in the area surrounding the stent struts (rabbit iliac stent model; oral gavage)	drug release from coated stents [2]	drug release from coated stents in plasma [3]
C/C(=C\c1csc(C)n1)[C@@H]1C[C@@H]2O[C@]2(C)CCC[C@H](C)[C@H](O)[C@@H](C)C(=O)C(C)(C)[C@@H](O)CC(=O)O1 [epothilone B]	potent inhibition	potent inhibition	potent inhibition	significantly reduce	significantly reduce	marked reduction	inhibited	significantly reduced	–	–
(+)-discodermolide	–	–	–	–	–	–	–	–	stable (+)-discodermolide release	stable (+)-discodermolide release
